From article PMC6199309, “A therapeutic approach to pantothenate kinase associated neurodegeneration” (Nature Communications, 2018)
pKd: −log10 of the molar value. Entries after “also recorded” stand apart in the source; their conditions may differ.

Legend:
CAMKK1 = target: T1, CAMKK1 (Homo sapiens, UniProt Q8N5S9); experiment: KINOMEscan; type: binding; details: read-out: %Ctrl @ 10000nM
T1 construct: purchased DiscoverX KINOMEscan

INSRR = target: T2, INSRR (Homo sapiens, UniProt P14616); experiment: KINOMEscan; type: binding; details: read-out: %Ctrl @ 10000nM
T2 construct: purchased DiscoverX KINOMEscan

TXK = target: T3, TXK (Homo sapiens, UniProt P42681); experiment: KINOMEscan; type: binding; details: read-out: %Ctrl @ 10000nM
T3 construct: DNA label for qPCR (T7 phage fusion or DNA tag); purchased DiscoverX scanMAX; host or cells: E. coli BL21-derived (T7 phage) or HEK-293

FLT3(D835Y) = target: T4, FLT3(D835Y) (Homo sapiens, UniProt P36888, D835Y); experiment: KINOMEscan; type: binding; details: read-out: %Ctrl @ 10000nM
T4 construct: purchased DiscoverX KINOMEscan

MERTK = target: T5, MERTK (Homo sapiens, UniProt Q12866); experiment: KINOMEscan; type: binding; details: read-out: %Ctrl @ 10000nM
T5 construct: purchased DiscoverX KINOMEscan
T5 sequence (Q12866 21-999): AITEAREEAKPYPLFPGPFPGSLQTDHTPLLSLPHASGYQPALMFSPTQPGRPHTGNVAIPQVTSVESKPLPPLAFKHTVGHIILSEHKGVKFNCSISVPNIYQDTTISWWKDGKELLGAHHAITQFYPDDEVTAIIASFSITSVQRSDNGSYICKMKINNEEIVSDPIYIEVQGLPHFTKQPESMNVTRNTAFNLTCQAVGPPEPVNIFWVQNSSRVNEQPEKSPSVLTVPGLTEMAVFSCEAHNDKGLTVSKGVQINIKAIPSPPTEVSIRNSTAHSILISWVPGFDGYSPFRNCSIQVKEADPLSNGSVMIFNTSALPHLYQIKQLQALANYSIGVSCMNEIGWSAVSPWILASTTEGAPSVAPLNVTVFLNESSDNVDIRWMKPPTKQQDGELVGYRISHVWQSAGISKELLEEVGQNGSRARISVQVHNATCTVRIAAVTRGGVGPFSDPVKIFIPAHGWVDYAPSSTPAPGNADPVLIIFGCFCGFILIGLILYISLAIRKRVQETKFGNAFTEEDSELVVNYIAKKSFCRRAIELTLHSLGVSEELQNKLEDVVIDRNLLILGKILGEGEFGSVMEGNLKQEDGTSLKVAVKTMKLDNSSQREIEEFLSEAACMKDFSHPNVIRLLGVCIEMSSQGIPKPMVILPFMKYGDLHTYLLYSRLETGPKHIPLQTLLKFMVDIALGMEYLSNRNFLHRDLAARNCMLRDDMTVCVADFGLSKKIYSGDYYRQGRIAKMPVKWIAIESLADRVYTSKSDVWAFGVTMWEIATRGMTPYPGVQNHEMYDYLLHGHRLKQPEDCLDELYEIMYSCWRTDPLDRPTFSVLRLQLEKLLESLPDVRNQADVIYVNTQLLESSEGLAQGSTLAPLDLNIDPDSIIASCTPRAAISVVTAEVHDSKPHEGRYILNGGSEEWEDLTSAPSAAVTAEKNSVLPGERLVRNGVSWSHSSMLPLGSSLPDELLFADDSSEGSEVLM

PRKCE = target: T6, PRKCE (Homo sapiens, UniProt Q02156); experiment: KINOMEscan; type: binding; details: read-out: %Ctrl @ 10000nM
T6 construct: purchased DiscoverX KINOMEscan

CAMK2D = target: T7, CAMK2D (Homo sapiens, UniProt Q13557); experiment: KINOMEscan; type: binding; details: read-out: %Ctrl @ 10000nM
T7 construct: purchased DiscoverX KINOMEscan

LRRK2 = target: T8, LRRK2 (Homo sapiens, UniProt Q5S007); experiment: KINOMEscan; type: binding; details: read-out: %Ctrl @ 10000nM
T8 construct: purchased DiscoverX KINOMEscan
T8 sequence (Q5S007 whole entry): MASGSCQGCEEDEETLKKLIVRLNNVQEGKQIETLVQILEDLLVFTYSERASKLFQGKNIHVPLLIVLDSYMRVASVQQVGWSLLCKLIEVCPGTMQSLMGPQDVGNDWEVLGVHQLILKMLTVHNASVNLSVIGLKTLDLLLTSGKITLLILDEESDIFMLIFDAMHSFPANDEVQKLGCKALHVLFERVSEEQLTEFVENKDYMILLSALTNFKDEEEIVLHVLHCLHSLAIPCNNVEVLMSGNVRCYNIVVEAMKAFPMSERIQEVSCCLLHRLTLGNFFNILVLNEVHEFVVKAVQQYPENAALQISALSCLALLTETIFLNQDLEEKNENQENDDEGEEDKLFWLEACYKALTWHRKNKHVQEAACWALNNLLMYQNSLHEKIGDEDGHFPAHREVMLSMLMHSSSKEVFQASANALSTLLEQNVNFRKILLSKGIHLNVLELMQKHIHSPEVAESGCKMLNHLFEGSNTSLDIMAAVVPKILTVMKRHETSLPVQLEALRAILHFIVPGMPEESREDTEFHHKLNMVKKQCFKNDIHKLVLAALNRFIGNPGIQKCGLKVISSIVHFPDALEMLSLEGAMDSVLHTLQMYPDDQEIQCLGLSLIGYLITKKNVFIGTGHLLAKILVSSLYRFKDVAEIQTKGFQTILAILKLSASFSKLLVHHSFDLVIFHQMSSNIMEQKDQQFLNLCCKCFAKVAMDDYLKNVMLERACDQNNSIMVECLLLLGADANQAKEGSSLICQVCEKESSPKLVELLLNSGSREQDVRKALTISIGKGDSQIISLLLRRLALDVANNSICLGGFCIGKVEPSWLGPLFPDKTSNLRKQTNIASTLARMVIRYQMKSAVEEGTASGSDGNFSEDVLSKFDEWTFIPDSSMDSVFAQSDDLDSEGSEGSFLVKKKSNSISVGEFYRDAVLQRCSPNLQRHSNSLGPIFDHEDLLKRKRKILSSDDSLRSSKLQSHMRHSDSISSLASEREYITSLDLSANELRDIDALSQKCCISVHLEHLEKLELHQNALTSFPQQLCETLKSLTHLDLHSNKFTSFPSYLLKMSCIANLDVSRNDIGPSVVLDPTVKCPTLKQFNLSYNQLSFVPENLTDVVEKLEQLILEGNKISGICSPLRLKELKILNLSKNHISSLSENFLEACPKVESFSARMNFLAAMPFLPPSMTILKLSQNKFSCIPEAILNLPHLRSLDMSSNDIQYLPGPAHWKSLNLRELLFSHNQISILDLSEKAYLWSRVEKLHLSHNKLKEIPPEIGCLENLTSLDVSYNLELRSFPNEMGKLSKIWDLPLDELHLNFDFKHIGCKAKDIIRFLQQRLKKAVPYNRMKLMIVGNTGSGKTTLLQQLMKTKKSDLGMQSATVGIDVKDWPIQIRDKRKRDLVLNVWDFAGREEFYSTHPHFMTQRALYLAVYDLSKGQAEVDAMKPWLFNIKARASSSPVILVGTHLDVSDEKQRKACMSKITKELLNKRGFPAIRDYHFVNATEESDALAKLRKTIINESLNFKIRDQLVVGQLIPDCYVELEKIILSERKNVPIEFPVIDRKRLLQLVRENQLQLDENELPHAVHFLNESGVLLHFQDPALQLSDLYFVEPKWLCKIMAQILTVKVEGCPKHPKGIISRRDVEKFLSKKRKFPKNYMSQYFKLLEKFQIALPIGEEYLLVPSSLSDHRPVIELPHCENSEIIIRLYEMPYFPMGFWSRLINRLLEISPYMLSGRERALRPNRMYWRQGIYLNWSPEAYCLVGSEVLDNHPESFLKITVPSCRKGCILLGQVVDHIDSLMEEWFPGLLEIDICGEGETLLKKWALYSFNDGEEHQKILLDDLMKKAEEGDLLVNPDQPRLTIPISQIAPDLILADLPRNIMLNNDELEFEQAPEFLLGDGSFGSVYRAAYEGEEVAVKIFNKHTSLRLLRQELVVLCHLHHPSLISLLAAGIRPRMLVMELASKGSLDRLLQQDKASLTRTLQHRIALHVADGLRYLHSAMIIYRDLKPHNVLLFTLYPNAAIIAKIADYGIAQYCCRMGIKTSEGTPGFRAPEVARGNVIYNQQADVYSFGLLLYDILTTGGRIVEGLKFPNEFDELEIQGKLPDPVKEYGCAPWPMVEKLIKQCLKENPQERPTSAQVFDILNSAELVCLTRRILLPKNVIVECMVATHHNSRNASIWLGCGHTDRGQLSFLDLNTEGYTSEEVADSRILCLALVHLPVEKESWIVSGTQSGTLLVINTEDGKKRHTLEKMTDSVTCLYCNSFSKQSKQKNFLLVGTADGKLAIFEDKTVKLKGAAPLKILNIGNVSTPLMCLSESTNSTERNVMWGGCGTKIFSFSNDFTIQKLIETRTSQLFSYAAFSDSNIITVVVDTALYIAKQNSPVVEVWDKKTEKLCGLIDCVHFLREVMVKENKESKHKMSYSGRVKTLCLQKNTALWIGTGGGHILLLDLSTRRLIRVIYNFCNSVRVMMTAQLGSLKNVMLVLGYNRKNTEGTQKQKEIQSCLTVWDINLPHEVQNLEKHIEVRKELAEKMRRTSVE

C3A cells = experiment: Cell growth and macromolecular synthesis; type: cell-based, human; details: 10 μM
Method: For quantifying protein, DNA and lipid synthesis, C3A cells were first seeded at 2 × 10^6 in 60 mm-dishes and grown overnight in maintenance medium. Cells were washed once with phosphate buffered saline (PBS) and 2 ml of labeling medium plus radiochemical was added to start the 24 h incubation. […]. […] The labeling medium contained 0.1% dimethylsulfoxide (DMSO; control) or 10 μM compound in 0.1% DMSO. Cells were harvested, washed once with PBS and harvested either by trypsinization and vacuum filtration through 0.45 micron discs (Millipore, HAWP02500) for protein and DNA determinations, or by scraping and extraction in 100 μl H2O + 240 μl methanol/acetic acid 98:2 + 100 μl CHCl3 for lipid determination. Filters were washed three times with PBS, air dried and counted with a Liquid Scintillation Analyzer. Radioactivity was normalized to cell numbers and viability was >95%. Cellular lipid emulsions were separated by centrifugation and the lower phases were quantified by liquid scintillation counting and normalized to cell numbers.
(b) Pathway labeling of C3A cells treated with either DMSO or DMSO […]
[…]. labeled amino acid mixture, DNA synthesis was determined by measuring the incorporation of [3H]thymidine, and lipid synthesis was determined by labeling with [U-14C]glucose and measuring the incorporation of label into the lipid fraction as described in Methods. […]

CDK11 = target: T9, CDK11 (Homo sapiens, UniProt Q9BWU1); experiment: KINOMEscan; type: binding; details: read-out: %Ctrl @ 10000nM
T9 construct: purchased DiscoverX KINOMEscan

[1] = target: T10, RSK4(Kin.Dom.1-N-terminal) (Homo sapiens, UniProt Q9UK32); experiment: KINOMEscan; type: binding; details: read-out: %Ctrl @ 10000nM
T10 construct: RSK4(Kin.Dom.1-N-terminal); purchased DiscoverX KINOMEscan
T10 sequence (Q9UK32 1-400 limits assumed): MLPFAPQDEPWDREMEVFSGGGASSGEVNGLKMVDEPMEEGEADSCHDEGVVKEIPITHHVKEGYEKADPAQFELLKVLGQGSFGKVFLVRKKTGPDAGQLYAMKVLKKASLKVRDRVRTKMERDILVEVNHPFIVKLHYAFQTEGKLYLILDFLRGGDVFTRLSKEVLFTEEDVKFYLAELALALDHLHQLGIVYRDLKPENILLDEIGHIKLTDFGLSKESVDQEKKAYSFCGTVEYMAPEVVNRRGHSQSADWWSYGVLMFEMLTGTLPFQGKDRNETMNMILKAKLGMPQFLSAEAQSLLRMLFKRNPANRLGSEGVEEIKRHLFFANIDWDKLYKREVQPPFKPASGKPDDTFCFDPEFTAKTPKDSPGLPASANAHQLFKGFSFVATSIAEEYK

FGFR3(G697C) = target: T11, FGFR3(G697C) (Homo sapiens, UniProt P22607, G697C); experiment: KINOMEscan; type: binding; details: read-out: %Ctrl @ 10000nM
T11 construct: purchased DiscoverX KINOMEscan

QSK = target: T12, QSK (Homo sapiens, UniProt Q9Y2K2); experiment: KINOMEscan; type: binding; details: read-out: %Ctrl @ 10000nM
T12 construct: purchased DiscoverX KINOMEscan

ADCK4 = target: T13, ADCK4 (Homo sapiens, UniProt Q96D53); experiment: KINOMEscan; type: binding; details: read-out: %Ctrl @ 10000nM
T13 construct: purchased DiscoverX KINOMEscan

PDGFRB = target: T14, PDGFRB (Homo sapiens, UniProt P09619); experiment: KINOMEscan; type: binding; details: read-out: %Ctrl @ 10000nM
T14 construct: purchased DiscoverX KINOMEscan

STK35 = target: T15, STK35 (Homo sapiens, UniProt Q8TDR2); experiment: KINOMEscan KdELECT; type: binding
T15 construct: DNA tag for qPCR (T7 phage fusion or DNA label); purchased DiscoverX KdELECT; host or cells: E. coli BL21-derived (T7 phage) or HEK-293
T15 sequence (Q8TDR2 whole entry, the tested form may be a part): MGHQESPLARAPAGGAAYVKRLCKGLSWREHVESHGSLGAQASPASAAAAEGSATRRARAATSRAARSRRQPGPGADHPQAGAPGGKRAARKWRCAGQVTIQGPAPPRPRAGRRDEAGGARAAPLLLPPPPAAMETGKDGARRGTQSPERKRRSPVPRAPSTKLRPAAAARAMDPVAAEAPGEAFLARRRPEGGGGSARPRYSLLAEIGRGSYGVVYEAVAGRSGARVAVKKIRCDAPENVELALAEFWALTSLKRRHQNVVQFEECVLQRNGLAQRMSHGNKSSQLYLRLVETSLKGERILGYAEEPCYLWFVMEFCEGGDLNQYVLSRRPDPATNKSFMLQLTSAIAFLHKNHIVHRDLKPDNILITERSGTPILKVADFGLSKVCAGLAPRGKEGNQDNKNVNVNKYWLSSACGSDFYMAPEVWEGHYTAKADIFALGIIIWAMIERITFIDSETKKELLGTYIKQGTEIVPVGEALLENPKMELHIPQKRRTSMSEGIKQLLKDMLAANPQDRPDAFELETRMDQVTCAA

CSNK2A1 = target: T16, CSNK2A1 (Homo sapiens, UniProt P68400); experiment: KINOMEscan; type: binding; details: read-out: %Ctrl @ 10000nM
T16 construct: purchased DiscoverX KINOMEscan
T16 sequence (P68400 whole entry): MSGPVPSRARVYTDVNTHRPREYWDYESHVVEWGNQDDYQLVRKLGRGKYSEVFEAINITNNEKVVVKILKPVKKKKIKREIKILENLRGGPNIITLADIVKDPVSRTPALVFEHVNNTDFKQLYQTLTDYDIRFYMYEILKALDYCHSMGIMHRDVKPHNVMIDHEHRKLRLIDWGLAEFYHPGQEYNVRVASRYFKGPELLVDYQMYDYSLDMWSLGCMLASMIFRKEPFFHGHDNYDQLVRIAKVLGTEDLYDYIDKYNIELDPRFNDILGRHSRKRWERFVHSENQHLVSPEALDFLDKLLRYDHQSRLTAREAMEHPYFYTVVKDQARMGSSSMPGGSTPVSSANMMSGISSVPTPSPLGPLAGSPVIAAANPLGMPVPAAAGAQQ

[2] = target: T17, RSK3(Kin.Dom.2-C-terminal) (Homo sapiens, UniProt Q15349); experiment: KINOMEscan; type: binding; details: read-out: %Ctrl @ 10000nM
T17 construct: RSK3(Kin.Dom.2-C-terminal); purchased DiscoverX KINOMEscan

CDKL3 = target: T18, CDKL3 (Homo sapiens, UniProt Q8IVW4); experiment: KINOMEscan; type: binding; details: read-out: %Ctrl @ 10000nM
T18 construct: purchased DiscoverX KINOMEscan

CSNK1D = target: T19, CSNK1D (Homo sapiens, UniProt P48730); experiment: KINOMEscan; type: binding; details: read-out: %Ctrl @ 10000nM
T19 construct: purchased DiscoverX KINOMEscan

ERBB2 = target: T20, ERBB2 (Homo sapiens, UniProt P04626); experiment: KINOMEscan; type: binding; details: read-out: %Ctrl @ 10000nM
T20 construct: purchased DiscoverX KINOMEscan

PIK3CA(M1043I) = target: T21, PIK3CA(M1043I) (Homo sapiens, UniProt P42336, M1043I); experiment: KINOMEscan; type: binding; details: read-out: %Ctrl @ 10000nM
T21 construct: purchased DiscoverX KINOMEscan

MET = target: T22, MET (Homo sapiens, UniProt P08581); experiment: KINOMEscan; type: binding; details: read-out: %Ctrl @ 10000nM
T22 construct: purchased DiscoverX KINOMEscan

MRCKB = target: T23, MRCKB (Homo sapiens, UniProt Q9Y5S2); experiment: KINOMEscan; type: binding; details: read-out: %Ctrl @ 10000nM
T23 construct: purchased DiscoverX KINOMEscan

DAPK2 = target: T24, DAPK2 (Homo sapiens, UniProt Q9UIK4); experiment: KINOMEscan; type: binding; details: read-out: %Ctrl @ 10000nM
T24 construct: purchased DiscoverX KINOMEscan

ASK1 = target: T25, ASK1 (Homo sapiens, UniProt Q99683); experiment: KINOMEscan; type: binding; details: read-out: %Ctrl @ 10000nM
T25 construct: purchased DiscoverX KINOMEscan

[3] = Pharmacokinetics in plasma of male BALB/c mice; type: in vivo; details: mouse
Method: Supplementary Table 2. […] Mean pharmacokinetic parameters of PZ- […]
administration to male BALB/c micea.
Dose Tmax C0/ Cmaxc AUClast AUCinf T1/2 CL Vss %Fd […]
aPharmacokinetics measurements performed by Sai Life Sciences Limited. […]
cBack extrapolated concentration for i.v. group. dBioavailability was calculated based on AUClast.

Plasma stability = type: in vitro ADME; details: human, read-out: Plasma Stability T1/2

Work on `CC(C)c1ccc(CC(=O)N2CCN(c3ccc(C#N)nn3)CC2)cc1` [PZ-2891, 6-(4-(2-(4-isopropylphenyl)acetyl)piperazin-1-yl)pyridazine-3-carbonitrile] yielded a remaining binding at 10 µM (CAMKK1) of 89%, a remaining binding at 10 µM (INSRR) of 82% and a remaining binding at 10 µM (TXK) of 92%. For the same compound, the remaining binding at 10 µM (FLT3(D835Y)) was 89%, the remaining binding at 10 µM (MERTK) was 95% and the remaining binding at 10 µM (PRKCE) was 70%. For the same compound, the remaining binding at 10 µM (CAMK2D) was 91%, the remaining binding at 10 µM (LRRK2) was 100% and the “cell viability (cell growth, synthesis of DNA, protein and lipid)” value (C3A cells) was “no differences between control and PZ-2891; also recorded: did not impact cell viability”. It also gave a remaining binding at 10 µM (CDK11) of 78%, a remaining binding at 10 µM [1] of 97% and a remaining binding at 10 µM (FGFR3(G697C)) of 99%. It also gave a remaining binding at 10 µM (QSK) of 82%, a remaining binding at 10 µM (ADCK4) of 92% and a remaining binding at 10 µM (PDGFRB) of 75%. For the same compound, the pKd (STK35; STK35) was < 4.52, the pKd (STK35; STK35 Replicate ID = 1) was < 4.52 and the pKd (STK35; STK35 Replicate ID = 2) was < 4.52. For the same compound, the remaining binding at 10 µM (CSNK2A1) was 82%, the remaining binding at 10 µM [2] was 66% and the remaining binding at 10 µM (CDKL3) was 86%. The remaining binding at 10 µM (CSNK1D) was 93%, the remaining binding at 10 µM (ERBB2) was 92% and the remaining binding at 10 µM (PIK3CA(M1043I)) was 74%. It also gave a remaining binding at 10 µM (MET) of 80%, a remaining binding at 10 µM (MRCKB) of 100% and a remaining binding at 10 µM (DAPK2) of 95%. The remaining binding at 10 µM (ASK1) was 74%, the half-life ([3]; intravenous, 2 mg/kg, mice plasma, read-out: T1/2 (mice plasma)) was 17 min and the AUC(0-inf) ([3]; plasma, iv, i.v. 2 mg/kg) was 611 ng·h/mL. It also gave an AUC(0-t) ([3]; plasma, iv, i.v. 2 mg/kg) of 609 ng·h/mL, a clearance ([3]; plasma, iv, i.v. 2 mg/kg) of 54.5 mL/min/kg and a C0 ([3]; plasma, iv, i.v. 2 mg/kg, back extrapolated concentration) of 2810 ng/mL. It also gave a half-life ([3]; plasma, iv, i.v. 2 mg/kg, read-out: T1/2 (converted)) of 16.8 min, a Vd ([3]; plasma, iv, i.v. 2 mg/kg, read-out: Vss) of 0.94 L/kg and an AUC(0-inf) ([3]; plasma, po, p.o. 10 mg/kg) of 1420 ng·h/mL. It also gave an AUC(0-t) ([3]; plasma, po, p.o. 10 mg/kg) of 1400 ng·h/mL, a Cmax ([3]; plasma, po, p.o. 10 mg/kg) of 1890 ng/mL and a Tmax ([3]; plasma, po, p.o. 10 mg/kg) of 15 min. For the same compound, the half-life (Plasma stability) was > 50 h.
